What was measured:
Conditions in all cases: HEK-293T
Hepatitis C virus [1] = assay: Antiviral activity against pseudo HCV infected in human 293T cells assessed as inhibition of HCV pseudo particles entry at 10 uM after 72 hrs by luciferase reporter gene assay; assay type: functional, Hepacivirus hominis
[2] = test system: Vesicular stomatitis virus; assay: Antiviral activity against pseudo VSV infected in human 293T cells assessed as inhibition of vesicular stromatis G protein pseudo particles entry at 1 uM after 72 hrs by luciferase reporter gene assay; assay type: functional
[3] = test system: Vesicular stomatitis virus; assay: Antiviral activity against pseudo VSV infected in human 293T cells assessed as inhibition of vesicular stromatis G protein pseudo particles entry at 5 uM after 72 hrs by luciferase reporter gene assay; assay type: functional
Hepatitis C virus [4] = assay: Antiviral activity against pseudo HCV infected in human 293T cells assessed as inhibition of HCV pseudo particles entry at 1 uM after 72 hrs by luciferase reporter gene assay; assay type: functional, Hepacivirus hominis
Hepatitis C virus [5] = assay: Antiviral activity against pseudo HCV infected in human 293T cells assessed as inhibition of HCV pseudo particles entry at 5 uM after 72 hrs by luciferase reporter gene assay; assay type: functional, Hepacivirus hominis

SMILES	inhibition at 10 µM (Hepatitis C virus [1]) [%]	inhibition at 1 µM [2] [%]	inhibition at 5 µM [3] [%]	inhibition at 1 µM (Hepatitis C virus [4]) [%]	inhibition at 5 µM (Hepatitis C virus [5]) [%]
CC1(C)CC[C@]2(C(=O)O)CC[C@]3(C)C(=CC[C@@H]4[C@@]5(C)CC[C@H](OC6O[C@H](CO)[C@@H](O)[C@H](O)[C@H]6O)C(C)(C)[C@@H]5CC[C@]43C)[C@@H]2C1 (some centres not stated)	0				
C[C@H]1[C@H](C)CC[C@]2(C(=O)O)CC[C@]3(C)C(=CC[C@@H]4[C@@]5(C)CC[C@H](O)C(C)(C)[C@@H]5CC[C@]43C)[C@H]12 [URSOLIC ACID]	30				
CC1(C)CC[C@]2(C(=O)O)CC[C@]3(C)C(=CC[C@@H]4[C@@]5(C)C[C@@H](O)[C@H](O)[C@@](C)(CO)[C@@H]5CC[C@]43C)[C@@H]2C1 [ARJUNOLIC ACID]	0				
CC1(C)CC[C@]2(C(=O)O)[C@H](O)C[C@]3(C)C(=CC[C@@H]4[C@@]5(C)CC[C@H](O)[C@@](C)(C=O)[C@@H]5CC[C@]43C)[C@@H]2C1 [QUILLAIC ACID]	0				
CC1(C)CC[C@]2(C(=O)O)CC[C@]3(C)[C@H](C(O)C[C@@H]4[C@@]5(C)CC[C@H](O)C(C)(C)[C@@H]5CC[C@]43C)[C@@H]2C1 (some centres not stated)	60				
CC1(C)CC[C@]2(C(=O)O)[C@H](O)C[C@]3(C)C(=CC[C@@H]4[C@@]5(C)CC[C@H](O)[C@@](C)(CO)[C@@H]5CC[C@]43C)[C@@H]2C1	20				
CC1(C)CC[C@]2(C(=O)O)[C@H](O)C[C@]3(C)C(=CC[C@@H]4[C@@]5(C)CC[C@H](O)[C@@](C)(C(=O)O)[C@@H]5CC[C@]43C)[C@@H]2C1	0				
CC1(C)CC[C@]2(C(=O)O)CC[C@]3(C)C(=C[C@@H](O)[C@@H]4[C@@]5(C)CC[C@H](O)C(C)(C)[C@@H]5CC[C@]43C)[C@@H]2C1	50				
CC1(C)CC[C@]2(C(=O)O)CC[C@]3(C)C(=CC[C@@H]4[C@@]5(C)CCC(=O)C(C)(C)[C@@H]5CC[C@]43C)[C@@H]2C1 [OLEANONIC ACID]	0				
COC(=O)[C@]12CCC(C)(C)C[C@H]1C1=CC[C@@H]3[C@@]4(C)CC[C@H](O)C(C)(C)[C@@H]4CC[C@@]3(C)[C@]1(C)CC2 [METHYL OLEANOLATE]	60				
CC(=O)O[C@@H]1[C@@H](OC(C)=O)[C@H](OC(C)=O)CO[C@H]1n1cc(CNC(=O)[C@]23CCC(C)(C)C[C@H]2C2=CC[C@@H]4[C@@]5(C)CC[C@H](O)C(C)(C)[C@@H]5CC[C@@]4(C)[C@]2(C)C[C@H]3O)nn1		39.8	47.7	35.9	87.3
COC(=O)[C@]12CCC(C)(C)C[C@H]1C1=CC[C@@H]3[C@@]4(C)CCC(=O)C(C)(C)[C@@H]4CC[C@@]3(C)[C@]1(C)C[C@H]2O		21.5	55.4	3.5	64.7
CC(=O)O[C@H]1[C@H](OC(C)=O)[C@H](OC(C)=O)CO[C@H]1n1cc(CNC(=O)[C@]23CCC(C)(C)C[C@H]2C2=CC[C@@H]4[C@@]5(C)CC[C@H](O)C(C)(C)[C@@H]5CC[C@@]4(C)[C@]2(C)C[C@H]3O)nn1		-6.6	20.9	26.3	72.6
CC1(C)CC[C@]2(C(=O)NCCCC[C@H](N)C(=O)O)CC[C@]3(C)C(=CC[C@@H]4[C@@]5(C)CC[C@H](O)C(C)(C)[C@@H]5CC[C@]43C)[C@@H]2C1	60				
CC1(C)CC[C@]2(C(=O)O)CC[C@]3(C)C(=CC[C@@H]4[C@@]5(C)C[C@@H](O)[C@H](O)C(C)(C)[C@@H]5CC[C@]43C)[C@@H]2C1 [MASLINIC ACID]	0				
COC(=O)[C@]12CCC(C)(C)C[C@H]1C1=CC[C@@H]3[C@@]4(C)CC[C@H](O)C(C)(C)[C@@H]4CC[C@@]3(C)[C@]1(C)C[C@H]2OC		7.3	9.9	17.5	33.7

SMILES	inhibition at 10 µM (Hepatitis C virus [1]) [%]	inhibition at 1 µM [2] [%]	inhibition at 5 µM [3] [%]	inhibition at 1 µM (Hepatitis C virus [4]) [%]	inhibition at 5 µM (Hepatitis C virus [5]) [%]
CC1(C)CC[C@]2(C(=O)O[C@@H]3O[C@H](CO)[C@@H](O[C@@H]4O[C@H](CO)[C@H](O)[C@H](O)[C@H]4O)[C@H](O)[C@H]3O)[C@H](O)C[C@]3(C)C(=CC[C@@H]4[C@@]5(C)CC[C@H](O)C(C)(C)[C@@H]5CC[C@]43C)[C@@H]2C1		22.6	16.7	32.7	40.1
COC(=O)[C@@]12C=C[C@]3(C)C(=CC[C@@H]4[C@@]5(C)CC[C@H](O)C(C)(C)[C@@H]5CC[C@]43C)[C@@H]1CC(C)(C)CC2		15.2	18.8	12.3	27.9
CC1(C)CC[C@]2(C(=O)NCc3cn([C@@H]4OC[C@@H](O)[C@H](O)[C@H]4O)nn3)[C@H](O)C[C@]3(C)C(=CC[C@@H]4[C@@]5(C)CC[C@H](O)C(C)(C)[C@@H]5CC[C@]43C)[C@@H]2C1		34.4	27	14.8	27.8
COC(=O)[C@]12CCC(C)(C)C[C@H]1[C@H]1C(=O)C[C@@H]3[C@@]4(C)CC[C@H](O)C(C)(C)[C@@H]4CC[C@@]3(C)[C@]1(C)C[C@H]2O		42.7	46.1	4.9	-8.7
CC(=O)O[C@@H]1[C@H](OC(=O)[C@]23CCC(C)(C)C[C@H]2C2=CC[C@@H]4[C@@]5(C)CC[C@H](O)C(C)(C)[C@@H]5CC[C@@]4(C)[C@]2(C)C[C@H]3O)OC[C@@H](OC(C)=O)[C@H]1OC(C)=O		17.1	20.1	19.3	60.6
CC1(C)CC[C@]2(C(=O)O)[C@H](O)C[C@]3(C)C(=CC[C@@H]4[C@@]5(C)CC[C@H](O)C(C)(C)[C@@H]5C[C@H](O)[C@]43C)[C@@H]2C1		1.6	5.6	30.4	53.5
CC(=O)OC[C@H]1O[C@@H](n2cc(CNC(=O)[C@]34CCC(C)(C)C[C@H]3C3=CC[C@@H]5[C@@]6(C)CC[C@H](O)C(C)(C)[C@@H]6CC[C@@]5(C)[C@]3(C)C[C@H]4O)nn2)[C@H](OC(C)=O)[C@@H](OC(C)=O)[C@@H]1O[C@H]1O[C@H](COC(C)=O)[C@@H](OC(C)=O)[C@H](OC(C)=O)[C@H]1OC(C)=O		13.2	28.9	56.4	79.7
CC(=O)OC[C@H]1O[C@@H](OC(=O)[C@]23CCC(C)(C)C[C@H]2C2=CC[C@@H]4[C@@]5(C)CC[C@H](O)C(C)(C)[C@@H]5CC[C@@]4(C)[C@]2(C)C[C@H]3O)[C@H](OC(C)=O)[C@@H](OC(C)=O)[C@H]1OC(C)=O		29.3	30.7	43.4	81.6
CC1(C)CC[C@]2(C(=O)O[C@@H]3O[C@H](CO)[C@@H](O)[C@H](O)[C@H]3O)[C@H](O)C[C@]3(C)C(=CC[C@@H]4[C@@]5(C)CC[C@H](O)C(C)(C)[C@@H]5CC[C@]43C)[C@@H]2C1		12.9	5.6	30.6	67.5
COC(=O)[C@]12CCC(C)(C)C[C@H]1C1=CC[C@@H]3[C@@]4(C)CC[C@H](OCc5ccccc5)C(C)(C)[C@@H]4CC[C@@]3(C)[C@]1(C)C[C@H]2O		12.6	25	10.5	5.2
CC1(C)CC[C@]2(C(=O)O[C@@H]3O[C@H](CO)[C@H](O)[C@H](O)[C@H]3O)[C@H](O)C[C@]3(C)C(=CC[C@@H]4[C@@]5(C)CC[C@H](O)C(C)(C)[C@@H]5CC[C@]43C)[C@@H]2C1		8.1	14.6	40.9	61.6
CC1(C)CC[C@]2(C(=O)NCc3cn([C@@H]4O[C@H](CO)[C@@H](O)[C@H](O)[C@H]4O)nn3)[C@H](O)C[C@]3(C)C(=CC[C@@H]4[C@@]5(C)CC[C@H](O)C(C)(C)[C@@H]5CC[C@]43C)[C@@H]2C1		-15.2	19.1	12.4	33.1
CC(=O)O[C@@H]1[C@@H](OC(C)=O)[C@H](OC(=O)[C@]23CCC(C)(C)C[C@H]2C2=CC[C@@H]4[C@@]5(C)CC[C@H](O)C(C)(C)[C@@H]5CC[C@@]4(C)[C@]2(C)C[C@H]3O)OC[C@H]1OC(C)=O		20.1	21.7	17.5	70.7
CC1(C)CC[C@]2(C(=O)O)[C@H](O)C[C@]3(C)C(=CC[C@@H]4[C@@]5(C)[C@H](O)C[C@H](O)C(C)(C)[C@@H]5CC[C@]43C)[C@@H]2C1		7.9	11.8	14.3	35.2
CC1(C)CC[C@]2(C(=O)NCc3cn([C@@H]4O[C@H](CO)[C@@H](O)[C@H](O)[C@@H]4O)nn3)[C@H](O)C[C@]3(C)C(=CC[C@@H]4[C@@]5(C)CC[C@H](O)C(C)(C)[C@@H]5CC[C@]43C)[C@@H]2C1		17.9	19.5	17.5	25
CC(=O)OC[C@H]1O[C@@H](OC(=O)[C@]23CCC(C)(C)C[C@H]2C2=CC[C@@H]4[C@@]5(C)CC[C@H](O)C(C)(C)[C@@H]5CC[C@@]4(C)[C@]2(C)C[C@H]3O)[C@H](OC(C)=O)[C@@H](OC(C)=O)[C@@H]1OC(C)=O		3.7	13.9	35.7	78.3

Reference: ChEMBL document CHEMBL2385072, “Development of oleanane-type triterpenes as a new class of HCV entry inhibitors” (J Med Chem, 2013)
